Reference: EP1574201B1, “Composition comprising benzyloxyethanol as preservative” (KAO CORPORATION, priority 2004, dated 2005)

Legend:
[1] = test system: Alcaligenes faecalis IFO 13111; assay: MIC by agar plate method; format: cell-based; conditions: SCD agar medium
Protocol: (§1) The minimum inhibitory concentration (MIC) of benzyloxyethanol against bacteria and fungi was determined by means of the agar plate method. There were employed the following microbial strains: Staphylococcus aureus IFO 13276, Escherichia coli IFO 3972, Pseudomonas aeruginosa IFO 13275, and Alcaligenes faecalis IFO 13111, and the following fungal strains: Penicillium citrinum IFO 6352 , Cladosporium cladosporoides IFO 6348 and Aspergillus niger IFO 6341. The media used in the test […] agar medium (product of Wako Pure Chemical Industries, Ltd.) for the bacteria, and GP agar medium (product of Wako Pure Chemical Industries, Ltd.) for the fungi, to which various concentration of benzyloxyethanol was added.

[2] = test system: Aspergillus niger IFO 6341; assay: MIC by agar plate method; format: cell-based; conditions: GP agar medium
Protocol: as §1

[3] = test system: Cladosporium cladosporoides IFO 6348; assay: MIC by agar plate method; format: cell-based; conditions: GP agar medium
Protocol: as §1

[4] = test system: Escherichia coli IFO 3972; assay: MIC by agar plate method; format: cell-based; conditions: SCD agar medium
Protocol: as §1

[5] = test system: Penicillium citrinum IFO 6352; assay: MIC by agar plate method; format: cell-based; conditions: GP agar medium
Protocol: as §1

[6] = test system: Pseudomonas aeruginosa IFO 13275; assay: MIC by agar plate method; format: cell-based; conditions: SCD agar medium
Protocol: as §1

[7] = test system: Staphylococcus aureus IFO 13276; assay: MIC by agar plate method; format: cell-based; conditions: SCD agar medium
Protocol: as §1

[8] = test system: Staphylococcus aureus IFO 13276, Escherichia coli IFO 3972, and Pseudomonas aeruginosa IFO 13275; assay: Preservative efficacy test (reduction in count of viable bacteria); format: cell-based; conditions: BOE and methyl paraben in combination versus each alone
Protocol: Preservative efficacy test was performed at 30°C by use of the bacteria written below and a sample (50 g) having a composition shown in the below-described Table 2, and the preservative efficacy was evaluated on the reduction in count of viable bacteria. The following test microorganisms are challenged: Staphylococcus aureus IFO 13276, Escherichia coli IFO 3972, and Pseudomonas aeruginosa IFO 13275.

[9] = guinea pig, in vivo
Protocol: Guinea pig maximization test was performed. Specifically, groups of guinea pigs, each group consisting of 10 guinea pigs, were employed, and each animal was given interedermal injection of.0.3(W/V)% benzyloxyethanol and 30(W/V)% benzyloxyethanol was applied occlusive patch. Subsequently, challenge was performed at a concentration of benzyloxyethanol at which no irritation occurs.

MIC (%) [1] [%]	MIC (%) [2] [%]	MIC (%) [3] [%]	MIC (%) [4] [%]	MIC (%) [5] [%]	MIC (%) [6] [%]	MIC (%) [7] [%]	positive rate [9] [%]	Compound	available amounts for the required reduction were reduced by [8] [%]
0.8	0.8	0.2	0.8	0.8	1.0	1.4	0	OCCOCc1ccccc1 [benzyloxyethanol]	40
								COC(=O)c1ccc(O)cc1 [methyl paraben, reference compound]	75
